Data set [1] relates to HepG2 cells. Briefly: Nude mouse model of hepatocellular carcinoma (HepG2), growth rate. In kind it is in vivo, nude mice. The protocol:
In contrast, LD30 (1 mg/kg/time, twice a day) reduced the growth rate of HepG2 cells by about 63%, with statistical significance (p<0.05) when compared with the ethanol control.
LD030 was also compared with Nexavar for their effects on the growth rate of HepG2 cells.
A further study was conducted on liver cancer cell line in nude mice (HepG2), where Nexavar's dosage was 30 mg/kg, twice a day and LD030's dosage was 1 mg/kg, twice a day along with a blank control and a combination of LD030 and Nexavar. The result is shown in FIG. 21 where Nr stands for Nexavar. […] When compared with the blank, LD030's effect is statistically significant (p<0.05).

The subject of data set [2] is Jak/STAT phosphorylation in PancI cells. As to the kind of experiment: Western Blotting of signal pathway proteins in PancI cells. In kind it is cell-based, human. The protocol: The Jak/STAT channel plays an important role in cell growth, proliferation, and survival. Using Western Blotting, the present invention studied the effect of LD030 on Jak/STAT phosphorylation in PancI cells.
The cells were treated with LD030 at concentrations of 20 μM and 50 μM, for 4 hours, 8 hours, 24 hours, and 48 hours. After the treatment, the cells were collected and subject to lysis in the buffer (50 mM Tris-HCl pH7.5, 100 mM NaCl, 5 mM EDTA, 40 mM NaP2O7, 1% Triton X-100, 1 mM dithiothreitol, 200 μM Na3VO4, 100 μM phenylmethysufonyl fluoride fluoride, 2 μg/ml leupeptin, 4 μg/ml aprotinin and 0.7 μg/ml pepstatin). Analysis of stained protein (BioRad, 500-0006) was conduct for adjusting the protein concentration. Same quantity of protein (50 μg/lane) was used for 10% SDS-polyacrylamide gel electrophoresis, and then electrically transferred to the polyvinylidene fluoride (PVDF) membrane. The membrane was treated with antibodies specific to p-Jak2 (Cell signaling, 3771), p-Stat3 (Cell signaling, 9131) and α-tubulin (Zymed Laboratories, 32-2500). Visible protein bands were detected with an enhanced chemiluminescence (ECL Plus) detection system (Amersham).
The protein electrophoresis results in the above described experiments are shown FIGS. 23 and 24 for LD030 treatments at 20 μM and 50 μM, respectively. […] The expression of tubulin as internal reference was basically unchanged.

Data set [3] deals with HepG2 cells. Briefly: Flow cytometry (PI staining) for apoptosis of HepG2 cells. In kind it is cell-based, human. As to conditions: HepG2, 24 hours, 0.03-17.5 μM. The protocol: The study was conduct by using flow cytometry to detect apoptosis of HepG2 cells after being treated for 24 hours with LD030 at concentrations 0.03 μM, 0.14 μM, 0.7 μM, 3.5 μM, and 17.5 μM along with blank control. Then proceeded as follows:
1. Collect cells (1-5×10^6/mL), centrifuge at 500-1000 r/min for 5 min, and discard the culture medium.
2. Wash the cells with 3 ml PBS once.
3. Centrifuge to discard PBS, and add 70% ice-cold ethanol for fixation, 4° C., 1-2 hours.
4. Centrifuge to discard ethanol, and re-suspend in 3 ml PBS for 5 min.
5. Filter with a 400 mesh screen, and centrifuge 500-1000 r/min for 5 min to discard PBS.
6. Stain with 1 ml propidium iodide (Propidium Iodide, PI) at 4° C. in the dark for 30 min.
7. Conduct flow cytometry.

The test system of a further data set is HepG2. As to the kind of experiment: In vitro effects on growth of liver cancer cells (Table 4). In kind it is cell-based, human.
A short description of data set [4]: Toxicity study of LD030 on BALB/c mice. In kind it is in vivo. Here is the method: LD030 animal toxicity experiments were conducted in adult BALB/c mice. The mice were subject to a […] dosage of 1-16 mg/Kg via peritoneal injection. […] The results confirmed that at a dosage as high as 16 mg/Kg LD030 is safe to BALB/c. By short-term toxicological experiment, the half-lethal dose LD50 (under continuous treatment) is 4 mg/kg, and the median effective dose ED50 of 0.2 mg/kg, resulting in a therapeutic Index of 20 (that is, LD50/ED50≈20).

The test system of data set [5] is pancreatic cancer cell lines. As to the kind of experiment: Nude mouse model of pancreatic cancer (xenograft), tumor size. The settings on record: 43 days; for tumor volume reduced: FIG. 15. In kind it is in vivo, NOD/SCID mice. Here is the method: Two strains of pancreatic cancer cell lines were selected to be grafted to nonobese diabetic/severe combined immunodeficient (NOD/SCID) mice, and the tumor was inoculated in mouse ventral sides. About two weeks, they were used as a nude mouse model of pancreatic cancer. […] Each of the above groups. The treatment continued for 43 days (gemcitabine alone group 2 times a week; other groups 3 times a week), and then tumor size was recorded as shown in FIG. 16. […] Further experiments were conducted to study the effects of the combinational use of LD030 with gemcitabine as compared being used alone on tumor inhibition. Four treatment groups were set up: (a) blank control, (2) gemcitabine (25 mg/kg/time, 2 times a week), (3) LD030 (0.5 mg/kg/time, 3 times a week), (4) LD030 (0.5 mg/kg/time, 3 times a week) together with gemcitabine (25 mg/kg/time, 2 times a week).

Data set [6] has as its system allograft pancreatic cancer cell lines. Briefly: Allograft pancreatic cancer cell lines in mouse model, tumor size. In kind it is in vivo. As to conditions: 0.01 mg/kg intraperitoneal injection, three times a week. The protocol:
LD030's effect on the growth of allograft pancreatic cancer cell lines was further studied as follows: Each mouse model was given 0.01 mg/kg LD030 via intraperitoneal injection, three times a week. […] Extracted from the treated mouse and the control mouse, the phosphorylation-signal transduction and activator of transcription (p-STAT3), phospho-JAK2 (p-JAK2), Bcl-XL, apoptosis protease 3, 9 and GADPH (glyceraldehyde-3-phosphate dehydrogenase, or […]) were subject to protein electrophoresis. […] GADPH was used as an internal reference, the expression of which was basically unchanged.

The mark [7] stands for this setting: 20 μM, at 24 hours and 48 hours, versus blank control.
[8] abbreviates: 50 μM, at 24 hours and 48 hours, versus blank control.

Turning to `CC(=O)OC(C)(C)C(=O)CCC(C)C1CC[C@@]2(C)C34CC[C@H]5C(C)(C)[C@@H](O)CC[C@]5(C)C3(CC[C@]12C)O4` (stereo partly shown) [LD030], the “effect on the tumor cells” value in the data set on HepG2 cells [1] (HepG2 in nude mice, LD030 1 mg/kg twice a day alone, FIG. 21) was “inhibitory effect”. Besides, the “reduction of growth rate of HepG2 cells” value in the data set with HepG2 cells [1] (nude mouse model, 1 mg/kg, twice a day, versus blank carrier control) is “about 63%”. Further, in data set [2] (setting [7]), the p-jak2 result is on record as “significantly reduced” and the “p-stat3 (tyr705)” value was “significantly reduced”. For the same compound, in data set [2] (20 μM, versus blank control), the p-JNK entry is “up-regulates”. For the same compound, in data set [2] (setting [8]), the p-ERK entry was “significantly reduced” and the p-c-raf entry is given as “significantly reduced”. For the same compound, in data set [2] (50 μM, at 48 hours), the “expression of Cyclin D1” value is reported as “decreased”. Besides, in data set [2] (50 μM, versus blank control), the “expression of p-JNK” value is recorded as “increased” and the “expression of p-p38” value is given as “increased”. In addition, the “cell lysis by flow cytometry” value with HepG2 cells [3] is reported as “greater proportions of cell lysis with increased LD030 concentrations”. The compound also registered a half-maximal inhibitory concentration (IC50) in the data set with HepG2 (Homo sapiens, HepG2, in vitro growth of HepG2 liver cancer cells) of 1330 nM. Moreover, the IC50 in the data set on HepG2 (in vitro growth of HepG2 liver cancer cells) was 1570 nM. Also, the “therapeutic Index (LD50/ED50)” value in data set [4] (BALB/c, mouse, in vivo) was 20. Further, in data set [4] (BALB/c, mouse, in vivo, short-term toxicological experiment, under continuous treatment, read-out: half-lethal dose LD50), the LD50 was determined as 4 mg/kg. Besides, the ED50 in data set [4] (Mus musculus, read-out: median effective dose ED50) came out at 0.2 mg/kg. The toxicity observed result in data set [4] (adult BALB/c mice, 1-16 mg/Kg via peritoneal injection) is “No significant toxicity”. Also, the survival result in data set [4] (adult BALB/c mice, 1-16 mg/Kg via peritoneal injection, after 14 days) is recorded as “still alive”. In addition, the tumor volume reduced in data set [5] (0.5 mg/kg/time LD030, 3 time a week) is recorded as 21%. The tumor volume reduced in data set [5] (1 mg/kg/time LD030, 3 time a week) is given as 62%. Moreover, the tumor size reduced in data set [5] (LD030 0.5 mg/kg/time, 3 times a week, FIG. 17) is recorded as 21%. Besides, the “tumor size versus untreated control mouse” value in data set [6] was “significantly reduced”.
